From patent US20220401483A1, “COMBINATION OF A T CELL THERAPY AND (S)-3-[4-(4-MORPHOLIN-4-YLMETHYL-BENZYLOXY)-L-OXO-L,3-DIHYDRO-ISOINDOL-2-YL]-PIPERIDINE-2,6-DIONE” (Juno Therapeutics, Inc., priority 2019, published 2022)

Tests used:
anti-CD19 CAR T cells = experiment: Proliferation and cell cycle of acutely stimulated anti-CD19 CAR T cells; format: cell-based, human
Experimental: Cell cycle and proliferation of anti-CD19 CAR T cells was measured by labeling cells using the Click-iT™ EdU Cell Proliferation Kit after which the prepared cells were analyzed by flow cytometry for DNA content. Numbers of anti-CD19 CAR T cells were measured over time using an IncuCyte® Live-Cell Analysis System.
As shown, treatment with Compound A reduced the proliferation of anti-CD19 CAR T cells. To further assess the effects on reducing proliferation, cell cycle was measured by flow cytometry by analyzing DNA content. FIG. 7D depicts plots of the percentage of cells in G1 phase (mean±SEM from data pooled from 3 donors and 2 independent experiments).

[1] = tested on: A549.CD19 tumor spheroids; experiment: A549.CD19 tumor spheroid model, rescue treatment of chronically stimulated CAR T cells; format: cell-based, human
Experimental: An A549.CD19 tumor spheroid model was further used to elucidate the T cell modulatory activity of the compounds. A549.CD19 tumor spheroid growth is insensitive to monotherapy treatment with the immunomodulatory compounds. CAR T cells that had been stimulated for 6 days with anti-ID were co-cultured by incubation with A549.CD19 tumor spheroids, in the presence of presence of Compound A (0.001 μM, 0.01 μM, or 0.1 μM). Averaged measurement of tumor spheroid size at Day 9 following co-culture with CAR-T cells was assessed. […] The number of CAR T cells in co-cultures with tumor spheroids, measured at day 5, were increased with treatment with Compound A (FIG. 5B).
(§1) Cytokines (IFNγ, IL-2 and TNFalpha) were measured from supernatant of the chronically stimulated CAR T cells above that had been co-cultured for 5 days with CD19 tumor spheroids. The log 2 fold change compared to control cells (chronically stimulated cells that had not been concurrently treated with immunomodulatory compound) is shown in FIG. 5E.

[2] = tested on: Granta-519 tumor spheroids; experiment: Spheroid tumor growth assay after chronic stimulation with concurrent treatment; format: cell-based, human
Experimental: CAR T cells that had been stimulated for 6 days with anti-ID concurrently in the presence of Compound A (0.001 μM or 0.01 μM) were co-cultured with by incubation with Granta-519 tumor spheroids, and CAR T cell cytolytic function and cytokine function were assessed at various time points. For comparison, cytolytic activity was also assessed for cells that had been similarly chronically stimulated with anti-ID in the presence of 1 μM or 0.1 μM Compound B. Averaged measurement of tumor spheroid size at various times following co-culture with CAR-T cells was monitored.
as §1, with “treated with Compound A immunomodulatory compound)” for “treated with immunomodulatory compound)”, “in FIG. 3F.” for “in FIG. 5E.”

Cmax in healthy subjects = settings: human, in vivo, doses of 0.3 mg and 1.0 mg
RL cells = experiment: Rescue of chronically stimulated CAR T cells cultured with RL cells; format: cell-based, human; settings: Compound B 1 μM, Compound A 0.001, 0.01 or 0.1 μM
Experimental: The RL cells were further used to assess the ability of immunomodulatory compounds to rescue or reverse the anti-CD19 CAR T cells from exhaustion. Anti-CD19 CAR-expressing T cells were stimulated under conditions to induce chronic stimulation and then were subsequently treated (rescue) with Compound B (1 μM) or Compound A (0.001 μM, 0.01 μM or 0.1 μM), or a vehicle control. Long-term, chronic stimulation was carried out by stimulation of CAR T cells with 30 μg/mL plate-bound anti-idiotypic (anti-ID) antibody for 6 days, substantially as described in Example 3. After the chronic stimulation, the CAR-T cells were cultured with RL cells in the presence of Compound B or Compound A. Cytolytic activity was assessed over time by measuring tumor cell number in the culture.

RL CD19+ tumor cells = experiment: Acute cytolytic activity, anti-CD19 CAR T cells co-cultured with RL CD19+ tumor cells; format: cell-based, human
Experimental: Anti-CD19 CAR T cells were co-cultured with RL CD19+ tumor cells at an effector to target (E:T) ratio of 1:1, in the presence of (S)-3-[4-(4-morpholin-4-ylmethyl-benzyloxy)-1-oxo-1,3-dihydro-isoindol-2-yl]-piperidine-2,6-dione (Compound A) (0.001 μM, 0.01 μM or 0.1 μM). Acute cytolytic activity was measured by tumor cell number over time. […] Co-culture of CAR T cells with RL resistant tumor cells in the presence of Compound A improved cytolytic CAR T cell function, […]

Q: Which “proliferation of anti-CD19 CAR T cells” value (anti-CD19 CAR T cells; 1 nM, 10 nM or 100 nM) does the source give for `O=C1CC[C@H](N2Cc3c(OCc4ccc(CN5CCOCC5)cc4)cccc3C2=O)C(=O)N1` [Compound A, (S)-3-[4-(4-morpholin-4-ylmethyl-benzyloxy)-1-oxo-1,3-dihydro-isoindol-2-yl]-piperidine-2,6-dione] here?
A: reduced

Q: What about the “percentage of cells in the G1 phase” value (anti-CD19 CAR T cells; 3 days treatment) of the same molecule?
A: statistically significant increase

Q: And the “number of CAR T cells in co-cultures with tumor spheroids” value ([1]; day 5, 0.01 μM or 0.1 μM)?
A: increased

Q: What about the “CAR T cell cytolytic function, A549.CD19 spheroid growth” value ([1]; rescue, 0.001, 0.01 or 0.1 μM, Day 9) of the same molecule?
A: improved

Q: What about the “IFNγ in co-culture supernatant” value ([1]; rescue, 5 days co-culture with spheroids) of the same molecule?
A: statistically significant increase

Q: And the “cytolytic function, average tumor volume after 9 days” value [2]?
A: significantly increased cytolytic function

Q: And the “cytolytic function, Granta-519 spheroid growth” value ([2]; 0.001 μM or 0.01 μM)?
A: improved cytolytic function

Q: And the “IFNγ in co-culture supernatant” value ([2]; 5 days co-culture with spheroids)?
A: statistically significant increase

Q: And the “improvement in cytolytic function compared with Compound B” value ([2]; Compound B 1 μM or 0.1 μM)?
A: greater

Q: And the Cmax (Cmax in healthy subjects)?
A: 2.41 to 11.8 nM

Q: What about the “CAR T cell cytolytic activity, RL cell growth” value (RL cells) of the same molecule?
A: substantially improved

Q: And the “sensitivity of RL tumor cell line to monotherapy” value (RL CD19+ tumor cells; 0.01 μM or 0.1 μM)?
A: sensitive

Q: What about the “cytolytic CAR T cell function against RL tumor cells” value (RL CD19+ tumor cells; co-culture, E:T 1:1, 0.001, 0.01 or 0.1 μM) of the same molecule?
A: improved
